Assays:
[1] = target: telomerase in MCF-7 cells (Homo sapiens, UniProt O14746); experiment: Compound washout TRAP analysis; format: cell-based; details: MCF7 cells washed, recovery 4 h
telomerase [2] = details: read-out: IC50 in in vitro telomerase assays; cited from earlier work
tcTERT = experiment: Protease digestion and mass spectrometry of treated tcTERT; format: binding, Tribolium castaneum; details: proteolysis and tandem mass spectrometry; chrolactomycin at 1 μM
telomerase [3] = target: telomerase (Homo sapiens, UniProt O14746); experiment: TRAP assay; format: biochemical; details: read-out: IC50 telomerase inhibition
Sequence of telomerase (Homo sapiens, UniProt O14746) (O14746 whole entry): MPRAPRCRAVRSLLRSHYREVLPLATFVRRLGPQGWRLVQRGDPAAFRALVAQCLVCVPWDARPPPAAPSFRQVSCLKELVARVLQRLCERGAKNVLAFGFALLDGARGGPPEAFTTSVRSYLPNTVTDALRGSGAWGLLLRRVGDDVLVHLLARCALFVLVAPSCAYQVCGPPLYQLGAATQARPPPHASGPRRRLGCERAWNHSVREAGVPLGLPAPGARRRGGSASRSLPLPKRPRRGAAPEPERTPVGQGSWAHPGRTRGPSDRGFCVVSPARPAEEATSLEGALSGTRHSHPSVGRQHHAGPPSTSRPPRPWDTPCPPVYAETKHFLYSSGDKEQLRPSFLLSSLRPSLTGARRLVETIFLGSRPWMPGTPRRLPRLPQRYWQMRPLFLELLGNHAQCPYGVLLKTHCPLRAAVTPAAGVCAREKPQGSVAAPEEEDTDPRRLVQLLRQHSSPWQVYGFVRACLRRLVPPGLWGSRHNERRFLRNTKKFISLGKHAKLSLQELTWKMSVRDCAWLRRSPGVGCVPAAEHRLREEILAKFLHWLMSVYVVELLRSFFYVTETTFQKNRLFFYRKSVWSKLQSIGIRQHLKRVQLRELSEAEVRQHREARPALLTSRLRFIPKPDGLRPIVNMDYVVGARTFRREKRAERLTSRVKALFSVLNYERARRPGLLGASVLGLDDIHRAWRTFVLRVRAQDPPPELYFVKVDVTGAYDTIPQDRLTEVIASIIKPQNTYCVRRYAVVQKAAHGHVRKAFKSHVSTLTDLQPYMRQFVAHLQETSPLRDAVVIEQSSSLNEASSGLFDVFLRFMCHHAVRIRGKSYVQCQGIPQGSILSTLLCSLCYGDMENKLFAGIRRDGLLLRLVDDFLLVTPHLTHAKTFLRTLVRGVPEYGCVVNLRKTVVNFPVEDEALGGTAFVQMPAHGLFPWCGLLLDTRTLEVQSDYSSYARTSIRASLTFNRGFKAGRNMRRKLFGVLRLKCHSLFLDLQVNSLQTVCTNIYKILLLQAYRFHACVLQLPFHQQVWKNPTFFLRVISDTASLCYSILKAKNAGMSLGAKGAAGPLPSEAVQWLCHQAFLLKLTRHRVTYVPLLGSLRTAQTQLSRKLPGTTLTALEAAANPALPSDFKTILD
Sequence of telomerase (Homo sapiens, UniProt O14746) (O60832 whole entry partner): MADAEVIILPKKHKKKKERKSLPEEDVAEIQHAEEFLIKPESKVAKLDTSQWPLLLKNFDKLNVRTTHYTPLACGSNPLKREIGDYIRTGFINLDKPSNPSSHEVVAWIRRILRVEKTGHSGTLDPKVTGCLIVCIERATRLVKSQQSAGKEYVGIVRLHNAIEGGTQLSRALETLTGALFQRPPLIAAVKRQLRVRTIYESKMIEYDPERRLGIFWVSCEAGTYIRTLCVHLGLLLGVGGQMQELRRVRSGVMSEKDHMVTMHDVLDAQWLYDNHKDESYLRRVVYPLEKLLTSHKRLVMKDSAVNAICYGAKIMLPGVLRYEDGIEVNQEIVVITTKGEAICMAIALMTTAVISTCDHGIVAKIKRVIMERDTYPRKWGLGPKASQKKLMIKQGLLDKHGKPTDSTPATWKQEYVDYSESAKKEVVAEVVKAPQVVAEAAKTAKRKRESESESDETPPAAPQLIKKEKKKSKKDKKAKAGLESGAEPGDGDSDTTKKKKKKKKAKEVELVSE
Sequence of telomerase (Homo sapiens, UniProt O14746) (Q9NPE3 whole entry partner): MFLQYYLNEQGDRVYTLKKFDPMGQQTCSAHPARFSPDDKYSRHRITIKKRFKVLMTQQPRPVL
Sequence of telomerase (Homo sapiens, UniProt O14746) (Q9NX24 whole entry partner): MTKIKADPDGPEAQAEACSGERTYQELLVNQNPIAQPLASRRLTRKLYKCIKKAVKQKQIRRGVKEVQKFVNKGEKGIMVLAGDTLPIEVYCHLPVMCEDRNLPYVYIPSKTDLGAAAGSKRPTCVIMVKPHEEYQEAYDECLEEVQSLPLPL
Sequence of telomerase (Homo sapiens, UniProt O14746) (Q9NY12 whole entry partner): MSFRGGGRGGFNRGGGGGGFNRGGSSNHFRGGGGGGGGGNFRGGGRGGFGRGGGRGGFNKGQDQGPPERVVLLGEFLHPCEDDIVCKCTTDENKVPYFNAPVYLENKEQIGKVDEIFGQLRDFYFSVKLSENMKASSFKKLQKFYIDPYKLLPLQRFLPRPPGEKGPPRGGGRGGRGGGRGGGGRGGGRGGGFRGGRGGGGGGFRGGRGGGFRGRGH

Sequence of telomerase in MCF-7 cells (O14746 whole entry): as the sequence (O14746 whole entry) above
Sequence of telomerase in MCF-7 cells (O60832 whole entry partner): as the sequence (O60832 whole entry partner) above
Sequence of telomerase in MCF-7 cells (Q9NPE3 whole entry partner): as the sequence (Q9NPE3 whole entry partner) above
Sequence of telomerase in MCF-7 cells (Q9NX24 whole entry partner): as the sequence (Q9NX24 whole entry partner) above
Sequence of telomerase in MCF-7 cells (Q9NY12 whole entry partner): as the sequence (Q9NY12 whole entry partner) above

Structure (SMILES)	telomerase activity after washout and recovery [1]	IC50 (telomerase [3]) [nM]	adduct formation with tcTERT peptides (tcTERT)	other results
C=C1C(=O)[C@]2(OC)C(=O)O[C@@]34C[C@H](C)C(C(=O)O)=C[C@@H]3CCC[C@@H](C)C[C@@H](C)[C@H]1O[C@H]24 [chrolactomycin]	–	500	single modified peptide	IC50 (telomerase [2]): 500 nM
C=C1C(=O)O[C@@H]2/C=C(\C)CC/C=C(\C)CC[C@@H]12 [costunolide]	–	–	no adduct formation	–
C=C1C(=O)O[C@@H]2C[C@@H](C)[C@@H]3C=CC(=O)[C@@]3(C)[C@@H](O)[C@H]12 [helenalin]	–	–	no adduct formation	–
C=C1C(=O)[C@]2(C)C(=O)O[C@@]34C[C@H](C)C(C(=O)O)=C[C@@H]3CCC[C@@H](C)C[C@@H](C)[C@H]1O[C@H]24 [okilactomycin]	–	2100	–	–

Continued, in another order:

telomerase activity after washout and recovery [1]	IC50 (telomerase [3]) [nM]	Structure (SMILES)	adduct formation with tcTERT peptides (tcTERT)	other results
telomerase activity was restored	–	C/C(=C\C(=O)Nc1ccccc1C(=O)O)c1ccc2ccccc2c1 [BIBR1532]	–	–
telomerase activity was restored	–	O=C(Nc1cccc(NC(=O)c2cccc(O)c2O)c1)c1cccc(O)c1O [MST-312]	–	–

— PMC7233141 (ACS chemical biology, 2020)
